According to patent publication US20050159599A1, “Cyclic compound, process for producing the same, and pest control agent” (priority 2002, published 2005):

Columns and labels:
Assay type in all cases: in vivo
[1] = system: Spodoptera litura; assay: Insecticidal effect for Spodoptera litura by immersion treatment of host crop root (Test Example 4); settings: 25 ppm, soybean root immersion 5 days, second-instar larvae of Spodoptera litura, fifth day after
Method: Insecticidal Effect for Spodoptera litura by Immersion Treatment of Host Crop Root Roots of primary leaves developing stage soybean was washed with tap water to remove soil, and then immersed in a pesticidal solution which was prepared by dissolving 5 mg of test compound (represented by the compound Nos. in the above Examples) in 0.5 ml of acetone containing Tween 20 ([…]) with ion-exchange water, and which was filled in a light-shielded Erlenmeyer flask (100 ml). On the fifth day after immersion of root, two primary leaves were cut off, and the leaves were put into an ice cream cup (180 ml). Ten second-instar larvae of Spodoptera litura were set free therein, and the cup was left in a temperature-controlled breeding room (25° C.). On the fifth day after, the number of surviving Spodoptera litura was examined. The rate of dead pests was calculated by the following formula. rate of dead pests (%)=(number of dead pests/number of test pests)×100

[2] = system: Plutella xylostella; assay: Insecticidal effect for Plutella xylostella by immersion treatment of host crop (Test Example 1); settings: cabbage leaf dipped, second-instar larvae of Plutella xylostella, fifth day after; for rate of dead pests (%): 100 ppm; for pest or weed control at 100 ppm: foliar, 120 h, read-out: rate of dead pests (%)
Method: Insecticidal Effect for Plutella xylostella by Immersion Treatment of Host Crop One true leaf of 7 to 8-leave stage cabbage was cut off and dipped in a pesticidal solution for a few seconds, which was prepared by dissolving 5 mg of test compound (represented by the compound Nos. in the above Examples) in 0.5 ml of acetone containing Tween 20 (trade name) and then diluting it to the prescribed concentration (100 ppm) with Dain (trade name, sticker) water diluted 5000-fold. After drying the pesticidal solution, the leaf was put into an ice cream cup (180 ml), and ten second-instar larvae of Plutella xylostella were set free therein. The cup was left in a temperature-controlled breeding room (24° C.). On the fifth day after, the number of surviving Plutella xylostella was examined. The rate of dead pests was calculated by the following formula. rate of dead pests (%)=(number of dead pests/number of test pests)×100

[3] = system: Spodoptera litura; assay: Insecticidal effect for Spodoptera litura by spraying treatment to host crop (Test Example 2); settings: 100 ppm, sprayed on soybean, third-instar larvae of Spodoptera litura, fifth day after; for pest or weed control at 100 ppm: 120 h, read-out: rate of dead pests (%)
Summary of the method: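 Soybean plants with fully developed primary leaves sprayed to runoff with 100 ppm compound (acetone/Tween 20, sticker water). Dried leaves given to ten third-instar larvae at 25° C.; survivors counted on day 5, mortality as dead/tested × 100.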

SMILES	rate of dead pests (%) [1] [%]	rate of dead pests (%) [2] [%]	rate of dead pests (%) [3] [%]	also measured
COC(=O)N1CN(C(=O)c2c(F)cccc2F)C(=O)N(c2cc(Cl)c(F)c(Cl)c2F)C1 [III-61]	100	100		
O=C(c1c(F)cccc1F)N1COCN(c2ccc(SC(F)(F)C(F)F)cc2F)C1=O [I-22]		100	100	
O=C(c1c(F)cccc1Cl)N1COCN(c2ccc(SC(F)F)cc2F)C1=O [I-218]	100	100	100	
COC(=O)C(=O)N1CN(C(=O)c2c(F)cccc2F)C(=O)N(c2ccc(SC(F)(F)C(F)Cl)cc2F)C1 (centres unmarked) [III-79]	100	100	100	
O=C(c1c(F)cccc1F)N1COCN(c2ccc(S(=O)(=O)C(F)F)cc2F)C1=O [I-43, 3-(2,6-difluorobenzoyl)-5-[4-(difluoromethylsulfonyl)-2-fluorophenyl]tetrahydro-4H-1,3,5-oxadiazin-4-one]				pest or weed control at 25 ppm ([1]; 120 h, read-out: rate of dead pests (%)): 100%; pest or weed control at 100 ppm [3]: 100%; pest or weed control at 100 ppm [2]: 100%
C#CCN1CN(C(=O)c2c(F)cccc2F)C(=O)N(c2ccc(Oc3ccc(C(F)(F)F)cc3Cl)cc2F)C1 [III-23]		100	100	
CN(C)C(=O)C(=O)N1CN(C(=O)c2c(F)cccc2F)C(=O)N(c2ccc(Oc3ccc(C(F)(F)F)cc3Cl)cc2F)C1 [III-43, 2-[3-[4-(2-chloro-4-trifluoromethylphenoxy)-2-fluorophenyl]-5-(2,6-difluorobenzoyl)hexahydro-4-oxo-1,3,5-triazin-1-yl]-N,N-dimethyl-2-oxoacetamide]				pest or weed control at 100 ppm [3]: 100%; pest or weed control at 100 ppm [2]: 100%
C[S+]([O-])c1ccc(N2COCN(C(=O)c3c(F)cccc3Cl)C2=O)c(F)c1 (centres unmarked) [I-206]	100	100		
O=C(OCc1ccccc1)N1CN(C(=O)c2c(F)cccc2F)C(=O)N(c2cc(Cl)c(F)c(Cl)c2F)C1 [III-55, 5-benzyloxycarbonyl-1-(3,5-dichloro-2,4-difluorophenyl)-3-(2,6-difluorobenzoyl)tetrahydro-1,3,5-triazin-2(1H)-one]				pest or weed control at 100 ppm [3]: 100%; pest or weed control at 100 ppm [2]: 100%
O=C(c1c(F)cccc1F)N1CN=CN(c2ccc(Oc3ccc(C(F)(F)F)cc3Cl)cc2F)C1=O [V-3]		100	100	
O=C(c1c(Cl)cccc1Cl)N1COCN(c2ccc(SC(F)(F)F)cc2F)C1=O [I-398]		100	100	
O=C(c1c(F)cccc1F)N1CN(c2ccccc2)CN(c2cc(Cl)c(F)c(Cl)c2F)C1=O [III-54]		100	100	
CS(=O)(=O)N1CN(C(=O)c2c(F)cccc2F)C(=O)N(c2ccc(Oc3ccc(C(F)(F)F)cc3Cl)cc2F)C1 [III-26]		100	100	
O=C(c1c(F)cccc1F)N1CSCN(c2ccc([S+]([O-])C(F)(F)C(F)Cl)cc2F)C1=O (centres unmarked) [II-22]		100		
COC(=O)C(=O)N1CN(C(=O)c2c(F)cccc2F)C(=O)N(c2cc(Cl)c(OC(F)(F)C(F)C(F)(F)F)cc2Cl)C1 (centres unmarked) [III-72]		100	100	
O=C(OCc1ccccc1)N1CN(C(=O)c2c(F)cccc2F)C(=O)N(c2ccc(SC(F)(F)C(F)Cl)cc2F)C1 (centres unmarked) [III-77]		100	100	
O=C(c1c(F)cccc1F)N1COCN(c2c(F)cc(SC(F)(F)F)c(F)c2F)C1=O [I-116]		100	100	
COC(=O)N1CN(C(=O)c2c(F)cccc2F)C(=O)N(c2ccc(Oc3ccc(C(F)(F)F)cc3Cl)cc2F)C1 [III-28]		100	100	

SMILES	rate of dead pests (%) [1] [%]	rate of dead pests (%) [2] [%]	rate of dead pests (%) [3] [%]	also measured
O=C(c1c(F)cccc1F)N1CNCN(c2cc(Cl)c(OC(F)(F)C(F)C(F)(F)F)cc2Cl)C1=O (centres unmarked) [III-71]		100	100	
C=CCN1CN(C(=O)c2c(F)cccc2F)C(=O)N(c2cc(Cl)c(F)c(Cl)c2F)C1 [III-56]		100	100	
C#CCN1CN(C(=O)c2c(F)cccc2F)C(=O)N(c2cc(Cl)c(F)c(Cl)c2F)C1 [III-57]		100	100	
COC(=O)SN1CN(C(=O)c2c(F)cccc2F)C(=O)N(c2cc(Cl)c(F)c(Cl)c2F)C1 [III-62]		100	100	
O=C(OCc1ccccc1)N1CN(C(=O)c2c(F)cccc2F)C(=O)N(c2cc(Cl)c(OC(F)(F)C(F)C(F)(F)F)cc2Cl)C1 (centres unmarked) [III-70]		100	100	
O=C(c1c(F)cccc1Cl)N1COCN(c2ccc(SC(F)(F)F)cc2F)C1=O [I-221]	100	100	100	
CN1CN(C(=O)c2c(F)cccc2F)C(=O)N(c2ccc(S(=O)(=O)C(F)F)cc2F)C1 [III-156, 1-(2,6-difluorobenzoyl)-3-[4-(difluoromethylsulfonyl)-2-fluorophenyl]-5-methyltetrahydro-1,3,5-triazin-2 (1H)-one]				pest or weed control at 100 ppm [3]: 100%; pest or weed control at 100 ppm [2]: 100%
COC(=O)N1CN(C(=O)c2c(F)cccc2F)C(=O)N(c2ccc(Cl)cc2)C1 [III-13]	100		100	
C[S+]([O-])c1cc(F)c(N2COCN(C(=O)c3c(F)cccc3F)C2=O)c(F)c1 (centres unmarked) [I-32]	90		100	
O=C(NOCc1ccccc1)C(=O)N1CN(C(=O)c2c(F)cccc2F)C(=O)N(c2ccc(Oc3ccc(C(F)(F)F)cc3Cl)cc2F)C1 [III-50]		100	100	
O=C(c1c(F)cccc1Cl)N1COCN(c2ccc([S+]([O-])C(F)(F)F)c(Cl)c2)C1=O (centres unmarked) [I-255]	100		100	
O=C(c1c(F)cccc1F)N1CSCN(c2ccc(SC(F)(F)C(F)Cl)cc2F)C1=O (centres unmarked) [II-19]		100		
O=C(c1c(F)cccc1F)N1COCN(c2c(F)cc(SC(F)(F)F)cc2Cl)C1=O [I-101]	100		100	
O=C(c1c(F)cccc1F)N1COCN(c2ccc([S+]([O-])C(F)(F)F)c(F)c2F)C1=O (centres unmarked) [I-108]		100		
Cc1ccc(S(=O)(=O)N2CN(C(=O)c3c(F)cccc3F)C(=O)N(c3cc(Cl)c(F)c(Cl)c3F)C2)cc1 [III-63]		100	100	
C#CCN1CN(C(=O)c2c(F)cccc2F)C(=O)N(c2ccc(Cl)cc2)C1 [III-8]	100		100	
O=C(c1c(F)cccc1F)N1CN(Cc2ccccc2)CN(c2cc(Cl)c(F)c(Cl)c2F)C1=O [III-60]		100	100	
O=C(c1c(F)cccc1F)N1COCN(c2ccc([S+]([O-])C(F)(F)C(F)F)cc2Cl)C1=O (centres unmarked) [I-17]	100	100	100	
